In patent US9289443B2, “Pharmaceutical composition and method for preventing or treating hepatitis C” (INDUSTRIAL TECHNOLOGY RESEARCH INSTITUTE, priority 2010, dated 2016):

How the values were obtained:
[1] = Cell cytotoxic test (MTT) on Huh-luc/neo-ET cells; type: cell-based; conditions: human, concentration for 50% cell kill, two-day culture
Description: (§1) Cell Cytotoxic Test on Huh-luc/noe-ET Cells
(§2) Huh-luc/neo-ET cells with a concentration of 2.5×10^4 cells/100 μl/well were seeded into a 96 well culture plate (Corning Incorporation COSTAR, 3599) and placed into a cell incubator for culturing.
(§3) The next day, the oleanolic acid derivatives as listed in the following Tables 1 and 2 were diluted with a DMEM culture medium to the concentrations of 28.73 μg/ml, 9.57 μg/ml, 3.19 μg/ml, 1.06 μg/ml, 0.35 μg/ml, 0.11 μg/ml, 0.039 μg/ml and 0.013 μg/ml, respectively, or diluted to the concentrations of 114.92 μg/ml, 38.33 μg/ml, 12.77 μg/ml, 4.25 μg/ml, 1.42 μg/ml, 0.46 μg/ml, 0.16 μg/ml and 0.057 μg/ml, respectively. The initial medium in the 96 well culture plate was sucked out by a vacuum pump (DOAT-704AA) without removing the cells. Then, the culture medium containing the oleanolic acid derivatives were added into the 96 well culture plate containing 100 μl/well of the cells as the experiment groups, while the untreated culture mediums were added to the cells as a control.
(§4) After a two-day culture, the medium was removed and each well containing cells was washed by 100 μl of 1×PBS (1 mM KH2PO4, 10 mM Na2HPO4, 137 mM NaCl, 2.7 mM KCl) twice. Precipitates were recorded and PBS was removed. 50 μl of the medium containing 0.5 mg/ml of MTT (Sigma, M2128) was added into each well of the 96 well culture plate. The 96 well culture plate was placed in a CO2 culture incubator for 1 hour. Subsequently, 150 μl of DMSO (Riedel-de Haül, 60153) was added to each well of the 96 well culture plate and vortexed (KS shaker Type 670) to thoroughly mix the resulting purple precipitates. The 96 well culture plate was then placed in a continuous wave length microwell plate analysis system (Molecular Devices, SPECTRAMAX 190) to measure the absorbance of cells at a wavelength of 560 nm.
(§5) The average absorbance of the control was set as 100% of the cell survival rates (%) to calculate the cell survival rates (%) of the experiment groups with different concentrations of the oleanolic acid derivatives.
(§6) The cell survival rate was calculated by the following formula: Absorbance of the experiment group/Absorbance of the control×100%
(§7) The data of the cell survival rates for all experiment groups were plotted on an x-y graph to see the distribution. A trend line was obtained. […]

Huh-luc/neo-ET cells = test: Cell cytotoxic test (MTT) on Huh-luc/neo-ET cells; type: cell-based; conditions: concentration for 15% cell kill, two-day culture
Description: as §1, §2, §3, §4, §5, §6, §7

[2] = test system: HCV replicon system (Huh-luc/neo-ET cell carrying I389luc-ubi-NS3-3'/ET); test: Inhibition of the HCV replication by determining the firefly luciferase activity (HCV replicon system); type: cell-based, Hepatitis C virus; conditions: for inhibition at 10 µM: compound concentration 10 μM
Description: HCV replicon system was used to test the effects of compounds on the treatment and prevention of hepatitis C. The HCV replicon system has been acknowledged as a screening tool for new drugs (Lohmann, V. et al., 1999, Replication of subgenomic hepatitis C virus RNAs in hepatoma cell line, Science. Vol. 285, 110-113; Bartenschlager, R. 2002, Hepatitis C virus replicons: potential role for drug development, Nature Reviews/Drug Discovery. Vol. 1, 911-916; Vorlijk, J. M. et al., 2003, A replicon-based bioassay for the measurement of interferons in patients with chronic hepatitis C, Journal of Virological Methods. 110:201-209). The HCV replicon system includes a Huh-luc/neo-ET cell carrying I389luc-ubi-NS3-3′/ET gene construct which monitors the replicative capability of the HCV. In the HCV replicon system, a firefly luciferase-ubiquitin-neomycin fusion protein is expressed by the translation of the internal ribosomal entry site (IRES) of the HCV, and the hepatitis C viral nonstructural proteins (NS3-5B), which includes protease, helicase and polymerase, are expressed by the translation of the IRES of the encephalomyocarditis virus (EMCV).
The IRES of the hepatitis C virus or the hepatitis C viral nonstructural proteins consist of a replication complex. When the replication complex is affected by the candidate compound, the activity of the HCV replicon system is inhibited and the activity of the luciferase is reduced. Accordingly, the inhibition of the HCV can be estimated by determining the activity of the intensity of the luciferase expressed by the Huh-luc/noe-ET cell.
Inhibition of the HCV Replication by Determining the Firefly Luciferase Activity
as §2
The oleanolic acid derivatives as listed in Table 2 were co-cultured with Huh-luc/neo-ET cells for 2 days. The mediums were washed twice by 100 μl of 1×PBS (1 mM KH2PO4, 10 mM Na2HPO4, 137 mM NaCl, 2.7 mM KCl) and PBS was removed. 35 μl of 1× passive lysis buffer (Promega, E1941) was added to the cells and vortexed for 10 minutes to thoroughly lysis the cells.
30 μl/well of the cell suspension was then added to a 96 well white plate (NUNC, 236108) for the measurement of the luciferase activity. Subsequently, 40 μl/well of luminescence analysis buffer and 20 μl/well of luminescence substrate (1 mM D-Luciferin) were added into the 96 well white plates. The luciferase activity (Rlu/s) was measured by a microplate luminescence meter (Berthold, MPL4) immediately.
The luciferase activity of the control was set as a standard to calculate the inhibition rates (%) of HCV of the experiment groups. The inhibition rates was calculated by the following formula: […]
After the test compounds were serial diluted and the inhibition rates of the HCV replication were determined at different concentrations, the concentration at 50% inhibition of the HCV replication (IC50) was calculated by grafit5 software (Erithacus Software).
For each experiment, 0.5 ng/ml and 0.1 ng/ml of the PEG IFN alpha-2a were used as positive controls for the IC50 test. Meanwhile, 1 μg/ml of cyclosporine A (CsA) was also used as a positive control for the IC50 test.

[3] = Hepatitis C virus, Huh-luc/neo-ET, 48 h, 2 days co-culture, luciferase activity, read-out: Inhibition rate (%)

Structure (SMILES) | CC50 at 2 days [1] [µM] | CC15 (Huh-luc/neo-ET cells) [µM] | inhibition at 10 µM [2, 3] [%] | IC50 ([2]; Hepatitis C virus, concentration for 50% inhibition of the HCV replication, Huh-luc/neo-ET replicon cells, read-out: IC50) [µM] | EW (CC50/IC50) ([2]; ratio of CC50/IC50) | inhibition at 5 µM ([2]; Hepatitis C virus, Huh-luc/neo-ET, 48 h, compound concentration 5 μM, 2 days co-culture, luciferase activity, read-out: Inhibition rate (%)) [%]
C=CC(C)(O)CC/C=C(\C)C(=O)OCC1OC(OC(=O)C23CCC4(C)C(=CCC5C6(C)CCC(OC7OC(COC8OC(CO)C(O)C(O)C8O)C(OC8OCC(O)C(O)C8OC8OCC(O)C(O)C8O)C(O)C7NC(C)=O)C(C)(C)C6CCC54C)C2CC(C)(C)C(O)C3O)C(OC2OCC(OC3OCC(O)(CO)C3O)C(O)C2O)C(O)C1OC1OC(CO)C(O)C(O)C1O (centres unmarked) [A16] | 45.3 | 12.09 | 95.3 ± 0.3 | 0.42 ± 0.21 | 107.9 | 
CC1(C)CC[C@]2(C(=O)O)CCC3=C([C@@H](CCl)C[C@@H]4[C@@]5(C)C[C@H](O)[C@H](O)[C@@](C)(C(=O)O)[C@@H]5CC[C@@]34C)[C@@H]2C1 [A01] | > 100 | >100 | 41.5 ± 26.7 |  |  | 
C/C=C(/C)C(=O)OC1C(O)C(C)(C)CC2C3=CCC4C5(C)CCC(OC6OC(C(=O)O)C(O)C(OC7OCC(O)C(O)C7O)C6OC6OC(CO)C(O)C(O)C6O)C(C)(C)C5CCC4(C)C3(C)C(OC(C)=O)C(O)C21CO (centres unmarked) [A11] | 29.8 | 6.1 |  |  |  | 28.3 ± 9.1
